Values after ≈ are worked out from the molar mass of the structure shown. Active and inactive are the calls of the source. The rule behind the calls is not given here.
Columns and labels:
Assay type in all cases: functional
[1] = system: HeLa; assay: Cytotoxicity against human HeLa cells at 10 ug/ml by MTT assay
[2] = system: WiDr; assay: Cytotoxicity against human WiDr cells at 10 ug/ml by MTT assay
[3] = system: Daoy; assay: Cytotoxicity against human Daoy cells

Row | SMILES | inhibition at 10 µg/mL [1] | inhibition at 10 µg/mL [2] | Activity [3] | EC50 ([3]; read-out: ED50 (the source's name))
1 | C/C1=C/C(=O)CC2=C[C@@H](OC2=O)[C@H](C(C)C)CC(=O)/C(C)=C/CC1 [SARCOSTOLIDE D] | 11.1% | 29.1% | inactive | 
2 | C/C1=C\C(=O)CC2=C[C@@H](OC2=O)[C@@H](C(C)C)CC(=O)/C(C)=C/CC1 [SARCOSTOLIDE C] | 1.65% | 19.4% | inactive | 
3 | C/C1=C/CC/C(C)=C/C(=O)CC2=C[C@@H](OC2=O)[C@@H](C(C)C)CC1=O [SARCOSTOLIDE A] | 22.3% | 20% | inactive | 
4 | C/C1=C/C=C/[C@H](C)C(=O)C[C@H](C(C)C)[C@H]2C=C(CC(=O)C1)C(=O)O2 [SARCOSTOLIDE E] | 16.8% | 27.5% |  | 5.5 µg/mL (≈ 16.6 µM)
5 | C/C1=C\CC[C@@H](C)CC(=O)CC2=C[C@@H](OC2=O)[C@@H](C(C)C)CC1=O [SARCOSTOLIDE G] | 18.4% | 20.1% | inactive | 
6 | C/C1=C/C/C=C(\C)C(=O)C[C@H](C(C)C)[C@H]2C=C(CC(=O)C1)C(=O)O2 [SARCOSTOLIDE F] | 7.32% | 29.8% | inactive | 
7 | C/C1=C/C(=O)CC2=C[C@@H](OC2=O)[C@@H](C(C)C)CC(=O)/C(C)=C/CC1 [SARCOSTOLIDE B] | 5.88% | 8.31% | inactive | 
